Tested on: Xenopus embryos
Experiment: Dorso-animal morpholino injection, phenotype scored at stage 35
Format: in vivo, Xenopus laevis
Conditions: FIG. 6 Panel D
Method: Xenopus embryo manipulations. Procedures for embryo manipulation, reverse transcription PCR and in situ hybridization were performed as previously described (Zhang et al., 2012, Cell, 149:1565-1577). The full length Xenopus laevis Tmem79 cDNA was used to make in situ sense and antisense probes.
mRNA and Morpholino injection. For animal cap assays, indicated mRNAs (Tmem79, 100 and 200 pg; Xwnt8, 10 pg; β-catenin 50 pg; Xnr1, 250 pg; BMP4, 100 pg) were injected into the animal pole at 4-cell stage, and animal caps were dissected at stage 9 (in the case of Xwnt8, Xnr1, BMP4) or at stage 8.5 and treated with recombinant proteins (bFGF, 100 ng/ml; hShh, 1.5 ng/mL) until stage 10 before RT-PCR. For Neural induction assay the MO (20 ng) for Tmem79, Usp8 or β-catenin was injected into the animal pole at 4-cell stage, and animal caps were dissected at stage 9 and treated with recombinant protein Noggin (500 ng/mL) until stage 18 before RT-PCR. To examine Tmem79 and Usp8 MOs specificity, […] of mRNA of Xenopus Tmem79, mouse Tmem79, Xenopus Usp8 or xmutUsp8 (Xenopus Usp8 mutated for mismatches with the MO) were injected with a control MO, Tmem79 MO or Usp8 MO (20 ng) into the animal pole at the 2-cell stage and cultured til stage 10 for Western blotting. To knockdown the endogenous xTmem79 or xUsp8, 20 ng of control MO, Tmem79 MO or Usp8 MO were injected into two dorso-animal blastomeres at the 8-cell stage and the phenotype was scored at stage 35. To rescue the Tmem79 MO phenotype, […] of mTmem 79, 20 ng of Usp8 MO or 10 ng of β-catenin MO was injected together with Tmem79 MO (20 ng). RT-PCR primers and Morpholinos. RT-PCT primer for Xenopus laevis Tmem 79: Forward, 5′-[…]-3′ (SEQ ID NO: 22); Reverse, 5′-[…]-3′ (SEQ ID NO: 23). The MO sequences: Tmem79.S MO, 5′-[…]-3′ (SEQ ID NO: 24); Tmem79.L MO, 5′-[…]-3′ (SEQ ID NO: 25); Usp8 MO, 5′-[…]-3′ ((SEQ ID NO: 26; Gene Tools, LLC). Phylogeny analysis and protein sequences. TMEM79 protein sequences were derived from full-length NCBI accessions and genomic sequences. Human (Homo sapiens): NP_115699.1 (SEQ ID NO: 27), Chimpanzee (Pan troglodytes): XP_001165258.1 (SEQ ID NO: 28), Rat (Rattus norvegicus): NP_001029068.1 (SEQ ID NO: 29), Mouse (Mus musculus): NP_077208.1 (SEQ ID NO: 30), Chicken (Gallus gallus): XP_024999333.1 (SEQ ID NO: 31), Frog (Xenopus laevis): XP_018089022.1 (SEQ ID NO: 32), Zebra fish (Danio rerio): XP_009290676.1 (SEQ ID NO: 33) and Coelacanth (Latimeria chalumnae): XP_014351966.1 (SEQ ID NO: 34). The Protein sequences encoded by mouse MAPEG family (Membrane-Associated Proteins in Eicosanoid and Glutathione metabolism, pfam01124) members protein sequences were derived from full-length NCBI accessions and genomic sequences. […]

Q: Which “Enlarged Head” value does the source give for “Usp8 MO: morpholino against Xenopus Usp8, SEQ ID NO: 26 (antisense GCTGCAAATTCTCCTCTCTTATCAA; all phosphorodiamidate morpholino (PMO); listed as Xenopus laevis)” here?
A: The value was 93.2 % of embryos.

Q: What about the “Moderate Deficiency” value (anterior deficiency) of the same substance?
A: The value was 0.0 % of embryos.

Q: What about the “Severe Deficiency” value (anterior deficiency) of the same substance?
A: The value was 0.0 % of embryos.

Q: And the Normal (dorso-animal injection)?
A: Its Normal is 6.8 % of embryos.

— patent US12534762B2, “Treating atopic dermatitis by targeting the WNT pathway” (Children's Medical Center Corporation, priority 2018, dated 2026)
